In this experiment the target is T1, TAOK1 (Homo sapiens, UniProt Q7L7X3).
T1 construct: purchased Thermo Fisher Scientific (Life Technologies) SelectScreen
The experiment in a line: SelectScreen LanthaScreen. It counts as binding. To be noted: read-out: % displacement. The method, boiled down:
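SelectScreen broad panel; activity (Z'LYTE, Adapta) plus binding formats. ATP: Km app for CSF1R Z'LYTE; 10 for CAMK1 Adapta. Readout = % per kinase.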

Structures are written as SMILES.

T1 sequence (Q7L7X3 whole entry): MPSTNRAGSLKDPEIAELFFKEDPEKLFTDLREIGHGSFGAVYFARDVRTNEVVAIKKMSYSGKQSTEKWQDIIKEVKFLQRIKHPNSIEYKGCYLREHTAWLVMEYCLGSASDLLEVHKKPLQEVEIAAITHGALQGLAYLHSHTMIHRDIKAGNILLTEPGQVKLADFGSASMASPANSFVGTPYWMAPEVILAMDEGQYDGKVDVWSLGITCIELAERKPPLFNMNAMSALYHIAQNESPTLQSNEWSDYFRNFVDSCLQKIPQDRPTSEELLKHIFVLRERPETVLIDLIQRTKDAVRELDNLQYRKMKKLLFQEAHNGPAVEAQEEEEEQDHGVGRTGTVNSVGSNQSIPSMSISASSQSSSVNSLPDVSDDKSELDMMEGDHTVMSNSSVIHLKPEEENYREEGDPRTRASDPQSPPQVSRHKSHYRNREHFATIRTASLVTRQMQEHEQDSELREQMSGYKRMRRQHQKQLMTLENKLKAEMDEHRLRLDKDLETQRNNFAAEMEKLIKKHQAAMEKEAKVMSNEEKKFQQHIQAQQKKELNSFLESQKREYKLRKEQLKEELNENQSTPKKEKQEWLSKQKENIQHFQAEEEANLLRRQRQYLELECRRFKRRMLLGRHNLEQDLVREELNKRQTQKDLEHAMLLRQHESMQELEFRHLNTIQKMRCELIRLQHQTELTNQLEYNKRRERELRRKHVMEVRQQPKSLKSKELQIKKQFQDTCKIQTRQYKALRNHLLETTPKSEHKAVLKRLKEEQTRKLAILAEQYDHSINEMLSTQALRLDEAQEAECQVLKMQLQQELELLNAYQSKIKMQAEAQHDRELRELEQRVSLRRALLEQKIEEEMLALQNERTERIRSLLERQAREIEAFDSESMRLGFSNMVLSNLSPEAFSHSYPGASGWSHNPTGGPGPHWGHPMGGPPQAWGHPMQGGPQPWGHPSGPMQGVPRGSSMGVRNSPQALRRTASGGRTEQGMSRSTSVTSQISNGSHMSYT

For the compound `CN(C(=O)CN1CCOCC1)c1ccc2sc3c(-c4cccc5c(=O)cc(N6CC7CCC(C6)O7)oc45)cccc3c2c1` [NU5455], the inhibition at 1 µM was determined as 3.7%.

For the origin of these results see paper PMC6934184, “Selective DNA-PKcs inhibition extends the therapeutic index of localized radiotherapy and chemotherapy” (The Journal of Clinical Investigation, 2019).
